From the supplement of paper PMC10307832

Legend:
Test in all cases: relative viability (nuclei count vs DMSO), 5 days (fraction); higher = more cells survive
CUDC-101 + OSI-027 = compound: C#Cc1cccc(Nc2ncnc3cc(OC)c(OCCCCCCC(=O)NO)cc23)c1 [CUDC-101] + COc1cccc2cc(-c3nc([C@H]4CC[C@H](C(=O)O)CC4)n4ncnc(N)c34)[nH]c12 [OSI-027] (partner 0.5 µM)
Outline: (§1)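 Lung cancer cell lines in 1536-well plates were dosed by pin tool the day after seeding, either with one drug alone or with a fixed anchor-drug dose plus five library-drug doses (not always all listed) in √10 steps. After 5 days, cells were fixed and their nuclei stained in one step (final 0.05% Triton X-100, 1% formaldehyde, 1 ug/ml Hoechst), then counted on 4× images. Relative viability is the nuclei count in treated wells divided by that in vehicle wells. Values are medians of duplicate plates.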

Vandetanib + Bortezomib = compound: COc1cc2/c(=N/c3ccc(Br)cc3F)nc[nH]c2cc1OCC1CCN(C)CC1 [Vandetanib] + CC(C)C[C@H](NC(=O)[C@H](Cc1ccccc1)NC(=O)c1cnccn1)B(O)O [Bortezomib] (partner 0.002 µM)
Outline: as §1

[1] = compound: C1=CC=C2C(=C1)N=C(S2)C(C#N)C3=NC(=NC=C3)NCCC4=CN=CC=C4 + CS(=O)(=O)N1CCN(Cc2cc3nc(-c4cccc5[nH]ncc45)nc(N4CCOCC4)c3s2)CC1 [Pictilisib] (partner 1 µM)
Outline: as §1

[2] = compound: C1=CC=C2C(=C1)N=C(S2)C(C#N)C3=NC(=NC=C3)NCCC4=CN=CC=C4 + C[C@@H](Oc1cc(-c2cnn(C3CCNCC3)c2)cnc1N)c1c(Cl)ccc(F)c1Cl [Crizotinib] (partner 1 µM)
Outline: as §1

| Cell Line | relative viability (CUDC-101 + OSI-027; first compound 0.01 µM) | relative viability (CUDC-101 + OSI-027; first compound 0.03162 µM) | relative viability (CUDC-101 + OSI-027; first compound 0.3162 µM) | relative viability (CUDC-101 + OSI-027; first compound 1 µM) | relative viability (Vandetanib + Bortezomib; first compound 0.02 µM) | relative viability (Vandetanib + Bortezomib; first compound 0.06325 µM) | relative viability (Vandetanib + Bortezomib; first compound 0.2 µM) | relative viability (Vandetanib + Bortezomib; first compound 0.6325 µM) | relative viability (Vandetanib + Bortezomib; first compound 2 µM) | relative viability ([1]; first compound 0.005 µM) | relative viability ([1]; first compound 0.01581 µM) | relative viability ([1]; first compound 0.05 µM) | relative viability ([1]; first compound 0.1581 µM) | relative viability ([1]; first compound 0.5 µM) | relative viability ([2]; first compound 0.005 µM) | relative viability ([2]; first compound 0.01581 µM) | relative viability ([2]; first compound 0.05 µM) | relative viability ([2]; first compound 0.1581 µM) | relative viability ([2]; first compound 0.5 µM) | relative viability (CUDC-101 + OSI-027; first compound 0.1 µM) |
| --- | --- | --- | --- | --- | --- | --- | --- | --- | --- | --- | --- | --- | --- | --- | --- | --- | --- | --- | --- | --- |
| 201T | 0.801 | 0.703 | 0.752 | 0.687 | 1.03 | 1.08 | 1.13 | 1.03 | 1.06 | 0.7 | 0.69 | 0.621 | 0.662 | 0.698 | 0.978 | 1.03 | 1.02 | 1.07 | 0.995 |  |
| A549 |  |  |  |  |  |  |  |  |  | 0.379 | 0.487 | 0.414 | 0.62 | 0.496 | 0.539 | 0.795 | 0.837 | 0.705 | 0.554 |  |
| A-427 | 0.464 | 0.486 | 0.473 | 0.308 | 0.887 | 0.99 | 1.04 | 1.02 | 0.961 | 0.723 | 0.664 | 0.726 | 0.844 | 0.878 | 0.69 | 0.979 | 0.984 | 0.951 | 0.899 | 0.351 |
| ABC-1 | 0.601 | 0.461 | 0.373 | 0.142 | 0.304 | 0.3 | 0.287 | 0.406 | 0.244 | 0.84 | 0.605 | 0.758 | 0.87 | 0.725 | 1.05 | 1.1 | 0.941 | 1.21 | 0.925 | 0.454 |
| BEN | 0.336 | 0.259 | 0.281 | 0.292 | 0.875 | 0.714 | 0.83 | 0.919 | 0.861 | 0.59 | 0.509 | 0.584 | 0.576 | 0.561 | 0.668 | 0.924 | 0.82 | 0.785 | 0.806 | 0.348 |
| CAL-12T | 0.706 | 0.668 | 0.71 | 0.575 | 1.03 | 1.13 | 0.865 | 0.82 | 0.537 | 0.607 |  |  | 0.551 | 0.375 | 0.48 | 0.561 | 0.743 | 0.766 | 0.37 | 0.777 |
| COR-L23 | 0.786 | 0.724 | 0.695 | 0.39 | 0.869 | 0.814 | 0.925 | 0.999 | 0.994 | 0.531 | 0.792 | 0.725 | 0.952 | 0.762 | 0.6 | 0.596 | 0.728 | 0.653 | 0.568 | 0.792 |
| COR-L 105 | 0.717 | 0.73 | 0.61 | 0.204 | 0.827 | 0.661 | 0.851 | 0.474 | 0.388 | 0.345 | 0.367 | 0.384 | 0.516 | 0.428 | 0.679 | 0.815 | 0.699 | 0.628 | 0.728 | 0.399 |
| Calu-6 |  |  |  |  | 1.15 | 0.933 | 1.09 | 0.959 | 0.941 | 0.74 | 0.885 | 0.938 | 0.932 | 0.806 | 0.479 | 0.771 | 0.831 | 0.907 | 0.638 |  |
| ChaGo-K-1 | 0.527 | 0.579 | 0.538 | 0.43 | 1.11 | 0.985 | 0.593 | 0.887 | 0.567 | 0.655 |  | 0.445 | 0.953 | 0.662 | 0.761 |  | 1.2 | 1.29 | 1.02 | 0.541 |
| EBC-1 |  |  |  |  | 0.635 | 0.559 | 0.647 | 0.577 | 0.505 | 0.398 | 0.363 | 0.352 | 0.368 | 0.275 | 0.236 | 0.172 | 0.189 | 0.224 | 0.22 |  |
| EKVX | 0.649 | 0.696 | 0.798 | 0.579 | 1.09 | 0.998 | 1.03 | 0.796 | 0.666 | 0.497 | 0.422 | 0.45 | 0.479 | 0.457 | 0.775 | 1.03 | 0.986 | 0.895 | 0.573 | 0.694 |
| EMC-BAC-2 | 0.405 | 0.371 | 0.315 | 0.263 | 1.02 | 1.04 | 1.01 | 1.03 | 1.04 | 0.492 | 0.512 | 0.484 | 0.572 | 0.501 | 0.645 | 0.769 | 0.704 | 0.766 | 0.581 | 0.401 |
| EPLC-272H | 0.266 | 0.317 | 0.244 | 0.187 | 0.983 | 0.764 | 0.892 | 0.995 | 0.909 | 0.271 | 0.277 | 0.288 | 0.352 | 0.267 | 0.852 | 0.97 | 0.868 | 0.94 | 0.795 | 0.238 |
| H3255 | 0.571 | 0.556 | 0.395 | 0.204 | 0.972 | 0.71 | 0.632 | 0.367 | 0.233 | 0.493 | 0.449 | 0.47 | 0.553 | 0.535 | 0.722 | 0.811 | 0.911 | 0.937 | 0.824 |  |
| HARA | 0.509 | 0.442 | 0.348 | 0.171 | 1.17 | 1.07 | 0.937 | 1.07 | 1.05 | 0.324 | 0.349 | 0.368 | 0.611 | 0.298 | 0.928 | 1.11 | 0.957 | 1.22 | 0.978 | 0.322 |
| HCC-15 | 0.697 | 0.696 | 0.73 | 0.584 | 1.03 | 0.962 | 0.956 | 1.08 | 1.08 | 0.733 | 0.74 | 0.72 | 0.855 | 0.685 | 0.734 | 0.851 | 0.833 | 1.02 | 0.776 | 0.674 |
